From US11596637B2, “CHK1 (SRA737)/PARPi combination methods of inhibiting tumor growth” (SIERRA ONCOLOGY, INC., priority 2017, dated 2023)
Like-named read-outs stand apart in the source and are kept apart here.

Columns and labels:
10 cancer cell lines = format: cell-based; conditions: for single agent activity across the cancer cell lines tested (in words): 10 cancer cell lines
Experimental: (§1) Briefly, cell lines were preserved in liquid nitrogen and thawed and expanded in growth media containing full serum. As the cells reached expected doubling times, the screening assay began. Cells were seeded in growth media and equilibrated via centrifugation. The cell cultures were placed in incubators and then underwent treatment. Assay plates were collected and ATP levels were measured. Assay plates were incubated with combinations for seventy two (72) or ninety six (96) hours in simultaneous and sequential dosing schedules.
(§2) Cell lines that have been preserved in liquid nitrogen were thawed and expanded in growth media containing full serum. Once cells have reached expected doubling times, screening began. Cells were seeded in growth media in black 384-well tissue culture treated plates at cell densities as listed in Appendix 1 incorporated into and part of this specification. Cells were equilibrated in assay plates via centrifugation and placed in incubators (attached to the Dosing Modules) at 37° C. for 24 hours before treatment. […] These Tzero (T0) plates were read using ultra-sensitive luminescence on Envision plate readers. Assay plates were incubated with compounds for 72 and were then analyzed using ATPLite™.
(§3) Chalice Analyzer allows two ways of visualizing single agent dose response curves. The Logistics Curve fit modeling in Analyzer uses sigmoidal modeling of the data points. In most contexts, the Logistics Curve fit will accurately model the dose response curve. All subsequent analyses for the single agent and combination activities of SRA737 contained within the Examples use the Linear Interpolation Curve fit.
(§4) A GI 100% represents complete growth inhibition (cytostasis) and in this case cells treated with compound for 72 or 96 hours would have the same endpoint reading as T0 control cells. A GI of 200% represents complete death (cytotoxicity) of all cells in the culture well and in this case the T reading at 72 or 96 hours will be lower than the T0 control (values near or at zero). These GI calculations were used in all single agent and combination data analysis for the combination screen.
(§5) Single agent activity of SRA737 and four PARP inhibitors in each of 10 cancer cell lines comprising breast, ovarian, prostate sarcoma and head and neck cancer cells was assessed (FIGS. 3-9). The 10 cancer cell lines examined were: A673, B-474, CAL-27, DU-145, MDA-MB-231, OVCAR-3, OVCAR-5, PC-3, HT-29 and SK-BR-3. The cell lines were screened with a 72 hour treatment schedule. Cell viability was measured by detection of ATP metabolism using an ATP monitoring luminescence detection assay (ATPLite™) GI50, IC50, Maximum Response Observed (Max Response) were calculated (FIG. 5).

A673 cells = test: Single agent assessment, ATPLite cell viability, 72 hour treatment; format: cell-based, human
Experimental: as §1, §2, §3, §4, §5

BT-474 cells = test: as above; format: cell-based, human
Experimental: as §1, §2, §3, §4, §5

CAL-27 cells = test: as above; format: cell-based, human
Experimental: as §1, §2, §3, §4, §5

DU145 cells = test: as above; format: cell-based, human
Experimental: as §1, §2, §3, §4, §5

HT-29 cells = test: as above; format: cell-based, human
Experimental: as §1, §2, §3, §4, §5

MDA-MB-231 cells = test: as above; format: cell-based, human
Experimental: as §1, §2, §3, §4, §5

OVCAR-3 cells = test: as above; format: cell-based, human
Experimental: as §1, §2, §3, §4, §5

OVCAR-5 cells = test: as above; format: cell-based, human
Experimental: as §1, §2, §3, §4, §5

PC-3 cells = test: as above; format: cell-based, human
Experimental: as §1, §2, §3, §4, §5

SK-BR-3 cells = test: as above; format: cell-based, human
Experimental: as §1, §2, §3, §4, §5

## Cn1ncnc1[C@H]1c2n[nH]c(=O)c3cc(F)cc(c23)N[C@@H]1c1ccc(F)cc1 [BMN 673, Talazoparib]
10 cancer cell lines; 72 hour treatment
  single agent activity across the cancer cell lines tested (in words): activity in most of the cancer cell lines tested

## NC(=O)c1cccc2cn(-c3ccc([C@@H]4CCCNC4)cc3)nc12 [Niraparib]
10 cancer cell lines; 72 hour treatment
  single agent activity across the cancer cell lines tested (in words): activity in most of the cancer cell lines tested

## O=C(c1cc(Cc2n[nH]c(=O)c3ccccc23)ccc1F)N1CCN(C(=O)C2CC2)CC1 [Olaparib]
10 cancer cell lines; 72 hour treatment
  single agent activity across the cancer cell lines tested (in words): activity in most of the cancer cell lines tested

## CNCc1ccc(-c2[nH]c3cc(F)cc4c3c2CCNC4=O)cc1 [Rucaparib]
10 cancer cell lines; 72 hour treatment
  single agent activity across the cancer cell lines tested (in words): activity in most of the cancer cell lines tested

## N#Cc1cnc(Nc2cc(NCC3CNCCO3)c(C(F)(F)F)cn2)cn1 (centres unmarked) [SRA737, 5-[[4-[[morpholin-2-yl]methylamino]-5-(trifluoromethyl)-2-pyridyl]amino]pyrazine-2-carbonitrile]
A673 cells
  sensitivity of the cell line to the single agent: intermediate sensitivity
BT-474 cells
  sensitivity of the cell line to the single agent: least sensitivity
CAL-27 cells
  sensitivity of the cell line to the single agent: least sensitivity
DU145 cells
  sensitivity of the cell line to the single agent: intermediate sensitivity
HT-29 cells
  sensitivity of the cell line to the single agent: intermediate sensitivity
MDA-MB-231 cells
  sensitivity of the cell line to the single agent: least sensitivity
OVCAR-3 cells
  sensitivity of the cell line to the single agent: intermediate sensitivity
OVCAR-5 cells
  sensitivity of the cell line to the single agent: highest sensitivity
PC-3 cells
  sensitivity of the cell line to the single agent: least sensitivity
SK-BR-3 cells
  sensitivity of the cell line to the single agent: highest sensitivity
10 cancer cell lines; of the 10 cancer cell lines, 72 hour treatment
  number of cancer cell lines in which single agent activity was demonstrated: 8
10 cancer cell lines; the remaining six responsive cell lines
  kind of single agent effect (cytotoxic / cytostatic): cytostatic
10 cancer cell lines; the two most responsive cell lines
  kind of single agent effect (cytotoxic / cytostatic): modestly cytotoxic
